Source: patent publication US11753445B2, “Therapeutic peptides” (COHBAR, INC., priority 2016, dated 2023)
Peptide text beside a SMILES is read from it.

How the values were obtained:
3T3-L1 Adipocytes [1] = assay: Free fatty acid levels in cultured mouse 3T3-L1 adipocytes, isoproterenol stimulated (Example 17); type: cell-based; conditions: Peptide Concentration 25 μM; isoproterenol 1 nM
Procedure: Mouse 3T3-L1 cells were seeded at a density between 1,000-20,000 cells per well on 96-well, 48-well, or 24-well plates in Pre-adipocyte Medium (Zen-Bio, Durham, N.C.) and grown to confluence at 37° C. in a humidified atmosphere of 5% CO2/95% air. Two days after confluence, cells were placed in Adipocyte Differentiation Medium (Zen-Bio, Durham, N.C.) and cultured for three additional days at 37° C. in a humidified atmosphere of 5% CO2/95% air. The culture media was then replaced with Adipocyte Maintenance Medium (Zen-Bio) and the cells were maintained for an additional 9-14 days at 37° C. in a humidified atmosphere of 5% CO2/95% air with partial medium replacement every other day. Following 12-17 days of differentiation, test peptides were added at a final concentration of 25-50 μM and incubated for 18-20 hours in Adipocyte Maintenance Medium at 37° C. in a humidified atmosphere of 5% CO2/95%. After the media incubation, media was removed and exchanged with Assay Buffer (Zen-Bio) containing isoproterenol (1 nM) (added to all samples except untreated controls) and the test peptides. Cells were incubated for a further 3 hours at 37° C. in a humidified atmosphere of 5% CO2/95%. Free fatty acid concentrations in the media were determined using a Free Fatty Acid Assay Kit (Zen-Bio) according to the manufacturer's instructions using a plate reader (540 nm).
Absorbance values were corrected for untreated background and expressed relative to isoproterenol treated cells. Treatment with isoproterenol (1 nM) alone was used as the free fatty acid level stimulatory control. The relative standard deviation of the isoproterenol control was <10%. […] Free fatty acid levels for insulin (100 nM) treatment were <5% of the isoproterenol control value.

[2] = system: Diet Induced Obese (DIO) mice; assay: Body weight, blood glucose and fat mass in Diet Induced Obese mice, 10 days (Example 6); type: in vivo, Male C57BL/6 mice; conditions: male DIO mice; 10 days twice daily intraperitoneal 15 mg/kg; N = 8; mean
Procedure: Animals were randomized to treatment groups based on blood glucose levels and body weight. The peptides of the invention were administered to two groups of male DIG mice once or twice daily by subcutaneous or intraperitoneal injection at a dose of 15 mg/kg/dose for 10 days (N=8 animals per treatment group). An additional group of male DIG mice (n=8) received vehicle (water or saline) alone. Body weight, blood glucose levels and food intake were monitored. Body mass distribution (fat vs lean) was determined by quantitative whole body NMR prior to dosing and at the end of dosing.

[3] = Stability in mouse plasma, peptides 100 uM (Example 14); type: in vitro ADME; conditions: mouse plasma 37° C., peptide 100 uM; for remaining at 0.25 h, 100 uM / remaining at 0.5 h, 100 uM / remaining at 1 h, 100 uM / remaining at 2 h, 100 uM / remaining at 3 h, 100 uM: pooled mouse plasma; for remaining at 0.25 h, 100 uM: 15 min, read-out: % Remaining at Each Time Point: 15 min; for remaining at 0.5 h, 100 uM: 30 min, read-out: % Remaining at Each Time Point: 30 min; for remaining at 1 h, 100 uM: 60 min, read-out: % Remaining at Each Time Point: 60 min; for remaining at 2 h, 100 uM: 120 min, read-out: % Remaining at Each Time Point: 120 min; for remaining at 3 h, 100 uM: 180 min, read-out: % Remaining at Each Time Point: 180 min
Procedure: Peptides (100 uM) were incubated in pooled mouse plasma at 37° C. and samples were removed and immediately analyzed for the concentration of intact peptide by LC/MS/MS over the course of 3 hours. The percent of peptide remaining in plasma at each time point was calculated relative to the initial peak area (Table 12).

3T3-L1 Adipocytes [4] = assay: Free fatty acid levels in cultured mouse 3T3-L1 adipocytes, isoproterenol stimulated (Example 2); type: cell-based; conditions: test peptides 25 μM; isoproterenol 1 nM
Summary of the method: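 Release of free fatty acids, read at 540 nm, was stimulated with 1 nM isoproterenol for 3 h in mouse 3T3-L1 adipocytes (12–17 days of differentiation). Cells were pre-exposed to 25 μM peptide for 18–20 h plus 1 h, with peptide kept in during stimulation. Values are background-subtracted and normalised to isoproterenol alone.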

3T3-L1 Adipocytes [5] = assay: Free fatty acid levels in cultured mouse 3T3-L1 adipocytes, forskolin stimulated (Example 3); type: cell-based; conditions: test peptides 25 μM; forskolin 1 μM
Procedure: Mouse 3T3-L1 cells were seeded at 1,000-20,000 cells per well on 96-well, 48-well, or 24-well plates in Pre-adipocyte Medium (Zen-Bio, Durham, N.C.) and grown to confluence at 37° C. in a humidified atmosphere of 5% CO2/95% air. Two days after confluence, cells were placed in Adipocyte Differentiation Medium (Zen-Bio, Durham, N.C.) and cultured for three additional days at 37° C. in a humidified atmosphere of 5% CO2/95% air. The culture media was then replaced with Adipocyte Maintenance Medium (Zen-Bio) and the cells were maintained for an additional 9-14 days at 37° C. in a humidified atmosphere of 5% CO2/95% air with partial medium replacement every other day. Following 12-17 days of differentiation, test peptides were added at a final concentration of 25 μM and incubated for 18-20 hours in Adipocyte Maintenance Medium at 37° C. in a humidified atmosphere of 5% CO2/95%. After 18-20 hours, the media was exchanged with fresh Adipocyte Maintenance Medium containing test peptides and incubated for 1 h at 37° C. in a humidified atmosphere of 5% CO2/95%. After 1 h media was exchanged with Assay Buffer (Zen-Bio) containing forskolin (1 μM) (added to all samples except untreated controls) and test peptides. Cells were incubated for a further 3 hours at 37° C. in a humidified atmosphere of 5% CO2/95%. Free fatty acid concentrations in the media were determined using a Free Fatty Acid Assay Kit (Zen-Bio) according to the manufacturer's instructions using a plate reader (540 nm). Absorbance values were corrected for untreated background and expressed relative to forskolin treated cells. Treatment with forskolin (1 μM) alone was used as the free fatty acid level stimulatory control. The relative standard deviation of the forskolin control was <10%. […] Free fatty acid levels for insulin (100 nM) treatment were <9% of the forskolin control value.

Human Primary Adipocytes = assay: Free fatty acid levels in cultured human primary adipocytes, forskolin stimulated (Example 5); type: cell-based; conditions: test peptides 25 μM; forskolin 1 μM
Procedure: Human primary adipocytes were seeded at 5,000-100,000 cells per well on 96-well, 48-well, or 24-well plate in Pre-adipocyte Medium (Zen-Bio, Durham, N.C.) and grown to confluence at 37° C. in a humidified atmosphere of 5% CO2/95% air. Two days after confluence, cells were placed in Adipocyte Differentiation Medium (Zen-Bio, Durham, N.C.) and cultured for three additional days at 37° C. in a humidified atmosphere of 5% CO2/95% air. The culture media was then replaced with Adipocyte Maintenance Medium (Zen-Bio) and the cells were maintained for an additional 11-21 days at 37° C. in a humidified atmosphere of 5% CO2/95% air with partial medium replacement every other day. Following 14-24 days of differentiation, test peptides were added at a final concentration of 25 μM and incubated for 18-20 hours in Adipocyte Maintenance Medium at 37° C. in a humidified atmosphere of 5% CO2/95%. After 18-20 hours, the media was exchanged with fresh Adipocyte Maintenance Medium containing test peptides and incubated for 1 h at 37° C. in a humidified atmosphere of 5% CO2/95%. After 1 h media was exchanged with Assay Buffer (Zen-Bio) containing forskolin (1 μM) (added to all samples except untreated controls) and test peptides. Cells were incubated for a further 3 hours at 37° C. in a humidified atmosphere of 5% CO2/95%. Free fatty acid concentrations in the media were determined using a Free Fatty Acid Assay Kit (Zen-Bio) according to the manufacturer's instructions using a plate reader (540 nm). Absorbance values were corrected for untreated background and expressed relative to forskolin treated cells. Treatment with forskolin (1 μM) alone was used as the free fatty acid level stimulatory control. The relative standard deviation of the forskolin control was <20%. […] Free fatty acid levels for insulin (100 nM) treatment were <8% of the forskolin control value.

Row | Compound | Free Fatty Acid Levels in 3T3-L1 Adipocytes Expressed as a Percent of Isoproterenol Control: Percent of Control Value (3T3-L1 Adipocytes [4]) [%] | Free Fatty Acid Levels in 3T3-L1 Adipocytes Expressed as a Percent of Forskolin Control: Percent of Control Value (3T3-L1 Adipocytes [5]) [%] | Free Fatty Acid Levels in Human Primary Adipocytes Expressed as a Percent of Forskolin Control: Percent of Control Value (Human Primary Adipocytes) [%] | also measured
1 | H-QEMNYIFYPR-OH [compound 366] |  |  |  | Free Fatty Acid Levels in 3T3-L1 Adipocytes Expressed as a Percent of Isoproterenol Control: Percent of Control Value (3T3-L1 Adipocytes [1]): 82.0%
2 | CC[C@H](C)[C@H](NC(=O)[C@H](Cc1ccc(O)cc1)NC(=O)[C@H](CC(N)=O)NC(=O)[C@H](CCSC)NC(=O)[C@H](CCC(=O)O)NC(=O)[C@H](CCC(N)=O)NC(=O)[C@H](Cc1c[nH]c2ccccc12)NC(=O)[C@@H](N)CCCNC(=N)N)C(=O)N[C@@H](Cc1ccccc1)C(=O)N[C@@H](Cc1ccc(O)cc1)C(=O)N1CCC[C@H]1C(=O)N[C@@H](CCCNC(=N)N)C(=O)N[C@@H](CCCNC(=N)N)C(=O)N[C@H](C)C(=O)O [compound 356] (HELM PEPTIDE1{R.W.Q.E.M.N.Y.I.F.Y.P.R.R.[dA]}$$$$V2.0) |  |  |  | Free Fatty Acid Levels in 3T3-L1 Adipocytes Expressed as a Percent of Isoproterenol Control: Percent of Control Value (3T3-L1 Adipocytes [1]): 100.6%
3 | H-RWQEMGYIFYPRALR-OH [compound 215] | 27.2 | 37.4 | 102 | Difference from Vehicle Control: Decrease from Baseline in Blood Glucose [2]: 16.4 mg/dL; Difference from Vehicle Control: Decrease from Baseline in Body Weight (%) [2]: 2.31%; Difference from Vehicle Control: Decrease from Baseline in Fat Mass [2]: 0.67 g; % Remaining at Each Time Point: 0 min [3]: 100%; remaining at 0.25 h, 100 uM [3]: 71.2%; remaining at 0.5 h, 100 uM [3]: 37.1%; remaining at 1 h, 100 uM [3]: 42.1%; remaining at 2 h, 100 uM [3]: 15.4%; remaining at 3 h, 100 uM [3]: 6.98%
4 | H-MRWQEMGYIFYPRQ-OH [compound 204] | 38.8 | 57.3 | 94.3 | 
5 | H-RWQEMGYIFYPRN-OH [compound 206] | 53.8 | 50.6 | 100 | 
6 | H-MRWQEMGYIFYPRQLR-OH [compound 214] | 52.3 | 50.2 | 89.9 | 
7 | H-RWQEMGYIFYPRNLR-OH [compound 216] | 36.3 | 50.1 | 110 | 
8 | H-MRWQEMNYIFYPRALR-OH [compound 218] | 41.0 | 43.6 | 75.4 | 
9 | H-RWQEMGYIFYPRQLR-OH [compound 217] | 27.3 | 40.3 | 108 | Difference from Vehicle Control: Decrease from Baseline in Blood Glucose [2]: -9.75 mg/dL; Difference from Vehicle Control: Decrease from Baseline in Body Weight (%) [2]: −2.54%; Difference from Vehicle Control: Decrease from Baseline in Fat Mass [2]: -0.89 g; % Remaining at Each Time Point: 0 min [3]: 100%; remaining at 0.25 h, 100 uM [3]: 71%; remaining at 0.5 h, 100 uM [3]: 33.2%; remaining at 1 h, 100 uM [3]: 53.6%; remaining at 2 h, 100 uM [3]: 22.8%; remaining at 3 h, 100 uM [3]: 14.1%
10 | H-RWQEMGYIFYPRQ-OH [compound 207] | 44.6 | 51.6 | 108 | 
11 | H-MRWQEMGYIFYPRN-OH [compound 203] | 52.9 | 54.5 | 75.2 | 
12 | H-RWQEMGYIFYPR-OH [compound 205] | 71.5 | 64.5 | 94.5 | 
